Measured values: patent publication US20220144847A1, “HETEROCYCLIC COMPOUND, PHARMACEUTICAL COMPOSITION COMPRISING SAME, PREPARATION METHOD THEREFOR, AND USE THEREOF” (Sichuan Kelun-Biotech Biopharmaceutical Co., Ltd., priority 2019, published 2022)

How the values were obtained:
VEGFR2 = VEGFR2 (Homo sapiens, UniProt P35968); test: VEGFR2 inhibition experiment (HTRF KinEASE-TK kit); type: biochemical; settings: read-out: Inhibition rate on VEGFR2; for inhibition at 0.3 µM: 300 nM; for inhibition at 0.03 µM: 30 nM; for inhibition at 0.1 µM: 100 nM
Protocol: Experimental method: According to the instructions of the HTRF KinEASE-TK kit (Cisbio), the compounds of the present disclosure were tested for their inhibitory effects on the VEGFR2 enzyme activity. After pre-incubation of the VEGFR2 enzyme and different concentrations of test compounds at room temperature for 30 min, a substrate and adenosine triphosphate (ATP) were added to initiate the reaction. After incubation at room temperature for 40 min, TK antibody-cryptate and streptavidin-XL665 were added, and the test was performed after incubation at room temperature for 45 min. With the solvent group (DMSO) as the negative control and the buffer group (without VEGFR2 enzyme) as the blank control, the relative inhibitory activity percentages (i.e., inhibition rates) of different concentrations of the compounds were computed as per the following formula:
(§1) Relative inhibitory activity percentage=1−(compound group of different concentrations−blank control)/(negative control−blank control)*100%
(§2) The relative inhibitory activity percentages of different concentrations of the compounds were plotted with respect to the compound concentrations, and the curve was fitted according to a four-parameter model to compute the IC50 value as per the following formula:
(§3) y=min+(max−min)/(1+(x/IC50)^(−Hillslope))
(§4) where y is the relative inhibitory activity percentage, max is the maximum value of the fitted curve, min is the minimum value of the fitted curve, x is the logarithmic concentration of the compound, and Hillslope is the slope of the curve.

RET-V804M = RET-V804M (Homo sapiens, UniProt P07949, V804M); test: RET inhibition experiment (HTRF KinEASE-TK kit), mutant RET-V804M; type: biochemical; settings: for IC50: read-out: The IC50 (nM) for inhibiting V804M; for inhibition at 0.01 µM: 10 nM (Table 2), read-out: Inhibition rate on RET-V804M
Protocol: Experimental method: According to the instructions of the HTRF KinEASE-TK kit (Cisbio), the compounds of the present disclosure were tested for their inhibitory effects on the activity of wild-type RET enzyme, mutant RET enzyme (RET-V804M, RET-V804L, and RET-M918T) and fusion-type RET enzyme (RET-CCDCl6). After pre-incubation of different RET enzymes and different concentrations of the test compounds at room temperature for 30 min, a substrate and adenosine triphosphate (ATP) were added to initiate the reaction. After incubation at room temperature for 40 min, TK antibody-cryptate and streptavidin-XL665 were added, and the test was performed after incubation at room temperature for 45 min. With the solvent group (DMSO) as the negative control and the buffer group (without RET enzyme) as the blank control, the relative inhibitory activity percentages (i.e., inhibition rates) of different concentrations of the compounds were computed as per the following formula:
as §1, §2, §3, §4

Chain of RET-V804M (P07949 29-1114 V804M): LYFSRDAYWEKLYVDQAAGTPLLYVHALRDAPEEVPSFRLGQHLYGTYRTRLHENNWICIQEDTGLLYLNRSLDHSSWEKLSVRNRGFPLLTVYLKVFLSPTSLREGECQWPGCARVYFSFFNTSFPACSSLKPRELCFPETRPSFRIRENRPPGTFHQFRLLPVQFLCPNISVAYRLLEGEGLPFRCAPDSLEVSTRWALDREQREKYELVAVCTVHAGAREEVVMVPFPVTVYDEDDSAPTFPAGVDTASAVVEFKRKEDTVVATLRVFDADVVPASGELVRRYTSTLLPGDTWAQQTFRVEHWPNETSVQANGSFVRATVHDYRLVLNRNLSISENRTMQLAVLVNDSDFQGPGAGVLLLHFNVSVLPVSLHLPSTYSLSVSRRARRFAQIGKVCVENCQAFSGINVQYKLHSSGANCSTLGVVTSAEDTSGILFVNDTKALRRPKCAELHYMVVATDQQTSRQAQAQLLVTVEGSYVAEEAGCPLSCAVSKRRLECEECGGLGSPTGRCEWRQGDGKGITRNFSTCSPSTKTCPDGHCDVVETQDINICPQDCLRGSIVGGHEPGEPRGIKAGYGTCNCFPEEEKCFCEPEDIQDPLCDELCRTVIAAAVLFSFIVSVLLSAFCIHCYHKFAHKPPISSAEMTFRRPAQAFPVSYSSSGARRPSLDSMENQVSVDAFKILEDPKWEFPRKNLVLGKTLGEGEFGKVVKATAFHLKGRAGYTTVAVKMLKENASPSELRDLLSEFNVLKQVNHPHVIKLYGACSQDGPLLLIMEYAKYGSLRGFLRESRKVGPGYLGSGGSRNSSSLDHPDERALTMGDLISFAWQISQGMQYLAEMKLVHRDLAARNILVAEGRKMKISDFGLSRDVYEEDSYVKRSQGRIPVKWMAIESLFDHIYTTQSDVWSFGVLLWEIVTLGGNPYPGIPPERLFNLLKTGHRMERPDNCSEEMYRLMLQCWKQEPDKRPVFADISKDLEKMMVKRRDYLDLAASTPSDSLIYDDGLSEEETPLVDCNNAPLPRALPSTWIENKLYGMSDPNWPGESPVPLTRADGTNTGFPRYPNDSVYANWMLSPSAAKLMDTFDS
Chain of VEGFR2 (P35968 20-1356, species assumed): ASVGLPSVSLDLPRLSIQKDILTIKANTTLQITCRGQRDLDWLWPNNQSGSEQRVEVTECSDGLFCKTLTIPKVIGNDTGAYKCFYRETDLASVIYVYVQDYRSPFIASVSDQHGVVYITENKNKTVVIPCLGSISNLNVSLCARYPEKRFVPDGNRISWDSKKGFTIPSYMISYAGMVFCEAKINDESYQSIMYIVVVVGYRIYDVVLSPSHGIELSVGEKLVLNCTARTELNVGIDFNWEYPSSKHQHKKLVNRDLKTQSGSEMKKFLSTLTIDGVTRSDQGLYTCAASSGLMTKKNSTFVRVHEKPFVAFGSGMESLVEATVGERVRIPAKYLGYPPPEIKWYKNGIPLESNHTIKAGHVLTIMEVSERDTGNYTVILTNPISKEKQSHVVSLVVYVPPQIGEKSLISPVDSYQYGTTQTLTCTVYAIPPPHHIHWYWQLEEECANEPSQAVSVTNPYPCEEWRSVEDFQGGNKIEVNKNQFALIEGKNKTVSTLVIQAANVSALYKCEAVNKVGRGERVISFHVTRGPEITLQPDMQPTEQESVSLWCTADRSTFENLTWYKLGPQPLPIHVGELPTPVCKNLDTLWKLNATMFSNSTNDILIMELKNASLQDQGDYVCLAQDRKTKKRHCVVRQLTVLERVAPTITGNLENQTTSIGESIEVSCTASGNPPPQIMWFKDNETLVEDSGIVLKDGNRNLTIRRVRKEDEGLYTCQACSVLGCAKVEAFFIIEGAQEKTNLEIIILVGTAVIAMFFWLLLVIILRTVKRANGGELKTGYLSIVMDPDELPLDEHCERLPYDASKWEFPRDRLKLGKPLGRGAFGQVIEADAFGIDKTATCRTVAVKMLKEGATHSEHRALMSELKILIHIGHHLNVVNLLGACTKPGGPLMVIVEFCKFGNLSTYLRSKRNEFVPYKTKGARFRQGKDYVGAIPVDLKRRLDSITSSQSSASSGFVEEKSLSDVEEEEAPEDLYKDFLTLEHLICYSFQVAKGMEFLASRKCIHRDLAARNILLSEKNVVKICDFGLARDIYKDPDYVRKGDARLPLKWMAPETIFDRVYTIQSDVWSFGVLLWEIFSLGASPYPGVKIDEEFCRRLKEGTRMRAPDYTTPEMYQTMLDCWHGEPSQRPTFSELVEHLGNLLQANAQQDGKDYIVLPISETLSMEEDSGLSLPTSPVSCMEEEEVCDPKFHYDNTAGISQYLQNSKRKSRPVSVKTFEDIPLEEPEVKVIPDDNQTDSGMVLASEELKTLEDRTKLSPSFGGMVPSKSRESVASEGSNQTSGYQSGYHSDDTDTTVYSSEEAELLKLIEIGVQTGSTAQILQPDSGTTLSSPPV

Structure (SMILES) | inhibition at 0.3 µM (VEGFR2) [%] | IC50 (RET-V804M) [nM] | inhibition at 0.01 µM (RET-V804M) [%] | inhibition at 0.03 µM (VEGFR2) [%] | inhibition at 0.1 µM (VEGFR2) [%]
Cc1cc(Nc2cc(C)[nH]n2)nc(-c2ccc(N3CC4CC(C3)N4Cc3ccc(-n4cc(Cl)c(C)n4)nc3)nc2)n1 [Compound 28, 2-(6-(6-((6-(4-chloro-3-methyl-1H-pyrazol-1-yl)pyridin-3-yl)methyl)-3,6-diazabicyclo[3.1.1]heptan-3-yl)pyridin-3-yl)-6-methyl-N-(5-methyl-1H-pyrazol-3-yl)pyrimidin-4-amine] | 23 | 10.4 ± 1.38 | – | – | –
Cc1cc(Nc2cc(C)[nH]n2)nc(-c2ccc(N3CCC(Oc4cncc(F)c4)CC3)nc2)n1 [Compound 29, 2-(6-(4-((5-fluoropyridin-3-yl)oxy)piperidin-1-yl)pyridin-3-yl)-6-methyl-N-(5-methyl-1H-pyrazol-3-yl)pyrimidin-4-amine] | 47 | – | 52 | – | –
Cc1cc(Nc2cc(C)[nH]n2)nc(-c2ccc(N3CC4CC(C3)N4Cc3ccc(-n4nccc4OC4CC4)nc3)nc2)n1 [Compound 30, 2-(6-(6-((6-(5-cyclopropoxy-1H-pyrazol-1-yl)pyridin-3-yl)methyl)-3,6-diazabicyclo[3.1.1]heptan-3-yl)pyridin-3-yl)-6-methyl-N-(5-methyl-1H-pyrazol-3-yl)pyrimidin-4-amine] | – | – | 88 | 51 | –
Cc1cc(Nc2cc(C)[nH]n2)nc(-c2ccc(N3CC4CC(C3)N4Cc3ccc(-n4ccc(CF)n4)nc3)nc2)n1 [Compound 31, 2-(6-(6-((6-(3-(fluoromethyl)-1H-pyrazol-1-yl)pyridin-3-yl)methyl)-3,6-diazabicyclo[3.1.1]heptan-3-yl)pyridin-3-yl)-6-methyl-N-(5-methyl-1H-pyrazol-3-yl)pyrimidin-4-amine] | – | – | 81 | 17 | –
CCOc1ccc(CN2C3CC2CN(c2ccc(-c4nc(C)cc(Nc5cc(C)[nH]n5)n4)cn2)C3)cc1 [Compound 41, 2-(6-(6-(4-ethoxybenzyl)-3,6-diazabicyclo[3.1.1]heptan-3-yl)pyridin-3-yl)-6-methyl-N-(5-methyl-1H-pyrazol-3-yl)pyrimidin-4-amine] | – | – | 64 | – | 22
CCc1ccnn1-c1ccc(CN2C3CC2CN(c2ccc(-c4nc(C)cc(Nc5cc(C)[nH]n5)n4)cn2)C3)cn1 [Compound 46, 2-(6-(6-((6-(5-ethyl-1H-pyrazol-1-yl)pyridin-3-yl)methyl)-3,6-diazabicyclo[3.1.1]heptan-3-yl)pyridin-3-yl)-6-methyl-N-(5-methyl-1H-pyrazol-3-yl)pyrimidin-4-amine] | 79 | – | 92 | – | –
Cc1cnn(-c2ccc(CN3C4CC3CN(c3ccc(-c5nc(C)cc(Nc6cc(C)[nH]n6)n5)cn3)C4)cn2)c1 [Compound 62, 6-methyl-2-(6-(6-((6-(4-methyl-1H-pyrazol-1-yl)pyridin-3-yl)methyl)-3,6-diazabicyclo[3.1.1]heptan-3-yl)pyridin-3-yl)-N-(5-methyl-1H-pyrazol-3-yl)pyrimidin-4-amine] | – | 4.53 ± 1.23 | – | – | 62
Cc1cc(Nc2cc(C)[nH]n2)nc(-c2ccc(N3CC4CC(C3)N4Cc3ccc(-n4ccc(F)n4)nc3)nc2)n1 [Compound 63, 2-(6-(6-((6-(3-fluoro-1H-pyrazol-1-yl)pyridin-3-yl)methyl)-3,6-diazabicyclo[3.1.1]heptan-3-yl)pyridin-3-yl)-6-methyl-N-(5-methyl-1H-pyrazol-3-yl)pyrimidin-4-amine] | – | – | 65 | – | 38
Cc1cc(Nc2cc(C)[nH]n2)nc(-c2ccc(N3CC4CC(C3)N4Cc3ccc(-n4cnc(F)c4)nc3)nc2)n1 [Compound 64, 2-(6-(6-((6-(4-fluoro-1H-imidazol-1-yl)pyridin-3-yl)methyl)-3,6-diazabicyclo[3.1.1]heptan-3-yl)pyridin-3-yl)-6-methyl-N-(5-methyl-1H-pyrazol-3-yl)pyrimidin-4-amine] | – | – | 79 | – | 38
